From patent US20230285596A1, “COMPOSITIONS AND METHODS FOR THE TREATMENT OF NIEMANN-PICK TYPE C1 DISEASE” (Voyager Therapeutics, Inc, priority 2020, published 2023)

What was measured:
[1] = test system: animal models of NPC disease; settings: biweekly intrathecal (IT) injection; cited from earlier work
HEK293 cells = experiment: NPC1 protein expression in HEK293 cells transfected with viral genome constructs (ELISA and Western Blot, normalized to GAPDH and transfection efficiency); type: cell-based; settings: for % over Ref. (% overexpression compared to that of the reference ITR_ITR 2): transfection, NPC1 protein vs reference ITR_ITR 2 (SEQ ID NO: 1753), Table 6; for NPC1 expression normalized to GAPDH and transfection efficiency: EF-1a promoter variants with wtNPC1, FIG. 2
From the text: The viral genome constructs encoding NPC1 generated, and investigated for expression of NPC1 protein in vitro. Use of different promoters (e.g., CBA promoters or variants thereof, CMV promoters and variants thereof, EF1a promoter variants) and/or codon optimized nucleotide sequences encoding the NPC1 protein (e.g., SEQ ID NO: 1750 or SEQ ID NO: 1749) (Table 6). An additional set of viral genome constructs were also investigated, testing different combinations of promoters and codon optimized sequences (Tables 7, 9 and 10).
In order to assess NPC1 expression, the viral genome constructs comprising a promoter operably linked to a transgene encoding were transfected into HEK293 cells. NPC1 protein level was determined by ELISA and Western Blot, and normalized to GAPDH control and transfection efficiency. The expression of NPC1 was calculated as percent overexpression relative to the reference construct (ITR_ITR 2 (SEQ ID NO: 1753) which comprises promoter variant 8 (SEQ ID NO: 1782) and the wild-type nucleotide sequence encoding NPC1 (SEQ ID NO: 1747)) (% over reference or % overexpression to reference).
Table 9 summarizes the constructs tested that comprise promoter variant 11 (SEQ ID NO: 1785), promoter variant 13 (SEQ ID NO: 1787), promoter variant 15 (SEQ ID NO: 1789), or promoter variant 18 (SEQ ID NO: 1791), operably linked to a transgene encoding NPC1 (wild-type or codon optimized nucleotide sequences encoding NPC1). These constructs were transfected into HEK293 cells, and the NPC1 protein expression was measured by ELISA and/or western blot and normalized to expression of a GAPDH control and transfection efficiency. The percent overexpression compared to a reference construct (ITR_ITR2 (SEQ ID NO: 1753), which comprises promoter variant 8 (SEQ ID NO: 1782) and the wild-type nucleotide sequence encoding NPC1 (SEQ ID NO: 1747)) was then calculated for each construct tested (% overexpression to reference) (Table 9, FIGS. 2-3).

NPC1 patient fibroblasts = experiment: NPC1 protein expression in NPC1 patient fibroblasts; type: cell-based, human; settings: transduced, FIG. 10B
From the text: NPC1/2 is overexpressed in HEK 293 cells using the AAV vector of Example 1 or other method of transfection. Western Blot and ELISA detection protocols are optimized using routine experimentation to establish assays for NPC1/2 protein detection. These and additional biochemical studies are used to validate assays and establish cell lines for additional in vitro analysis. For example, Western Blot and ELISA assays can be performed and optimized using fibroblast cell lines, which may be obtained from Coriell Institute (Camden, N.J., United States). Fibroblast cell lines can be from healthy individual donors (e.g., Coriell catalog nos. GM00038, GM00302, GM00500, GM00969, and/or GM05758—referred to respectively herein as H1, H2, H3, H4, and H5 cell lines) or from diagnosed Niemann-Pick Disease, Type C1 patient donors (e.g., Coriell catalog nos. GM00110, GM03123, GM18436, and/or GM23162 referred to respectively herein as N1, N2, N3, and N4 cell lines).
NPC1 protein expression was assessed in healthy and NPC1 patient fibroblasts according to the assays described in Example 2. […] ITR_ITR 1 rescued NPC1 protein to near 100% relative to healthy fibroblasts. ITR_ITR 3 and ITR_ITR 5 rescued NPC1 protein to 100% or greater relative to healthy fibroblasts. […]

human neuronal cells = experiment: NPC1 protein expression in human neuronal cells; type: cell-based; settings: human neurons, transduced; FIG. 10A
From the text: Cell-lines and reagents: Standard cell-lines are used for initial screening. This includes lines from multiple species to align with in vivo studies. Since transduction of both neuronal and non-neuronal cell types are needed in vivo, two neuronal and two non-neuronal cell types are used for in vitro screening. These cell lines include naïve neuronal SK-N-AS cells (procured from ATCC), primary neuronal cultures from NPC1^−/− mice (see below), immortalized human hepatocytes (procured from Creative Bioarray or ATCC), NPC1 patient fibroblasts (procured from Coriell) and/or iPS Cells derived from NPC1 patients (Yu, Xiao-Hua, et al. “NPC1, intracellular cholesterol trafficking and atherosclerosis.”Clinica chimica acta 429 (2014): 69-75, the disclosure of which is incorporated by reference in its entirety). Example cell lines for use in assays described herein include fibroblast cell lines, which may be procured from Coriell Institute (Camden, N.J., United States). […]
NPC1 protein expression was further assessed for constructs ITR_ITR 2, ITR_ITR 1, ITR_ITR 3, ITR_ITR 4, and ITR_ITR 5 (SEQ ID NOs: 1753, 1752, and 1754-1756, respectively) in hepatocytes (FIG. 5, left graph) and constructs ITR_ITR 2, ITR_ITR 1, ITR_ITR 3, ITR_ITR 4, ITR_ITR 5, ITR_ITR 6, and ITR_ITR 7 (SEQ ID NOs: 1753, 1752, and 1754-1758, respectively) in human neuronal cells (FIG. 5, right graph). […]

[2] = % overexpression vs reference, Table 8

2-hydroxypropyl-β-cyclodextrin
efficacy in animal models of NPC disease [1]: effectively delay the onset of neurological signs, ameliorate cerebellar and liver dysfunction, and prolong lifespan

CCCCN1C[C@H](O)[C@@H](O)[C@H](O)[C@H]1CO [Miglustat]
efficacy in animal models of NPC disease [1]: effectively delay the onset of neurological signs, ameliorate cerebellar and liver dysfunction, and prolong lifespan

ITR_ITR 7: Viral genome SEQ ID NO: 1758: short CBA promoter (SEQ ID NO: 1735); WT NPC1 protein coding sequence
% over Ref. (% overexpression compared to that of the reference ITR_ITR 2) (HEK293 cells): −15%

ITR_ITR 41: Viral genome SEQ ID NO: 1833: CMVie enhancer (SEQ ID NO: 1737); short CBA promoter; WT NPC1 protein coding sequence
% over Ref. (% overexpression compared to that of the reference ITR_ITR 2) (HEK293 cells): 165%

wtNPC1: Wild type Human NPC1 Coding Sequence, SEQ ID NO: 1747 [reference compound]
NPC1 expression, CBA promoter with intron (HEK293 cells; [2]): 72%
NPC1 expression, CBA promoter without intron (HEK293 cells; [2]): −15%
NPC1 expression, CMV promoter with intron (HEK293 cells; [2]): 356%
NPC1 expression, CMV promoter without intron (HEK293 cells; [2]): 203%
NPC1 expression, Promoter Variant 8 (SEQ ID NO: 1782) with intron (HEK293 cells; [2]): 311%

B1: Promoter Variant 15: EF-1a promoter variant, 252 nt, SEQ ID NO: 1789 (nucleic acid)
DNA: GGTGGAGAAGAGCATGCGTGAGGCTCCGGTGCCCGTCAGTGGGCAGAGCGCACATCGCCCACAGTCCCCGAGAAGTTGGGGGGAGGGGTCGGCAATTGAACCGGTGCCTAGAGAAGGTGGCGCGGGGTAAACTGGGAAAGTGATGTCGTGTACTGGCTCCGCCTTTTTCCCGAGGGTGGGGGAGAACCGTATATAAGTGCAGTAGTCGCCGTGAACGTTCTTTTTCGCAACGGGTTTGCCGCCAGAACACAG
NPC1 expression normalized to GAPDH and transfection efficiency (HEK293 cells): increased NPC1 expression relative to the ITR_ITR 2 reference construct

B2: CMV promoter: short CMV promoter, 205 nt, SEQ ID NO: 1736 (nucleic acid)
DNA: GTGATGCGGTTTTGGCAGTACATCAATGGGCGTGGATAGCGGTTTGACTCACGGGGATTTCCAAGTCTCCACCCCATTGACGTCAATGGGAGTTTGTTTTGGCACCAAAATCAACGGGACTTTCCAAAATGTCGTAACAACTCCGCCCCATTGACGCAAATGGGCGGTAGGCGTGTACGGTGGGAGGTCTATATAAGCAGAGCTC
NPC1 expression (NPC1/B-actin) (NPC1 patient fibroblasts): increased expression of NPC1 compared to Promoter Variant 11

B3: Promoter Variant 11: EF-1a promoter variant, 236 nt, SEQ ID NO: 1785 (nucleic acid)
DNA: CGTGAGGCTCCGGTGCCCGTCAGTGGGCAGAGCGCACATCGCCCACAGTCCCCGAGAAGTTGGGGGGAGGGGTCGGCAATTGAACCGGTGCCTAGAGAAGGTGGCGCGGGGTAAACTGGGAAAGTGATGTCGTGTACTGGCTCCGCCTTTTTCCCGAGGGTGGGGGAGAACCGTATATAAGTGCAGTAGTCGCCGTGAACGTTCTTTTTCGCAACGGGTTTGCCGCCAGAACACAG
NPC1 expression (NPC1/B-actin) (human neuronal cells): increased expression of NPC1 compared to the CMV promoter
NPC1 expression normalized to GAPDH and transfection efficiency (HEK293 cells): increased NPC1 expression relative to the ITR_ITR 2 reference construct

B4: Promoter Variant 13: EF-1a promoter variant, 241 nt, SEQ ID NO: 1787 (nucleic acid)
DNA: GCATGCGTGAGGCTCCGGTGCCCGTCAGTGGGCAGAGCGCACATCGCCCACAGTCCCCGAGAAGTTGGGGGGAGGGGTCGGCAATTGAACCGGTGCCTAGAGAAGGTGGCGCGGGGTAAACTGGGAAAGTGATGTCGTGTACTGGCTCCGCCTTTTTCCCGAGGGTGGGGGAGAACCGTATATAAGTGCAGTAGTCGCCGTGAACGTTCTTTTTCGCAACGGGTTTGCCGCCAGAACACAG
NPC1 expression normalized to GAPDH and transfection efficiency (HEK293 cells): increased NPC1 expression relative to the ITR_ITR 2 reference construct

B5: Promoter Variant 18: EF-1a promoter variant, 263 nt, SEQ ID NO: 1791 (nucleic acid)
DNA: GTCATCACTGAGGTGGAGAAGAGCATGCGTGAGGCTCCGGTGCCCGTCAGTGGGCAGAGCGCACATCGCCCACAGTCCCCGAGAAGTTGGGGGGAGGGGTCGGCAATTGAACCGGTGCCTAGAGAAGGTGGCGCGGGGTAAACTGGGAAAGTGATGTCGTGTACTGGCTCCGCCTTTTTCCCGAGGGTGGGGGAGAACCGTATATAAGTGCAGTAGTCGCCGTGAACGTTCTTTTTCGCAACGGGTTTGCCGCCAGAACACAG
NPC1 expression normalized to GAPDH and transfection efficiency (HEK293 cells): increased NPC1 expression relative to the ITR_ITR 2 reference construct
